Results reported in paper PMC7937321 (Genes and Environment, 2021).

Columns and labels:
[1] = test system: human lymphoblastoid TK6 cells, thymidine kinase gene; assay: TK gene mutation assay (TK6 assay, OECD TG490)
TK6 cells = assay: Cytotoxicity in the TK6 assay (CE, RS, RSG, RTG); conditions: for CE3: as fraction
[2] = TK6, short treatment -S9 mix, 250 μg/mL
[3] = TK6, short treatment -S9 mix, 500 μg/mL
[4] = TK6, short treatment -S9 mix, 1000 μg/mL
[5] = TK6, short treatment -S9 mix, 2000 μg/mL
[6] = dose 250 μg/mL, +S9 mix, short treatment
[7] = dose 250 μg/mL, -S9 mix, 24 h treatment
[8] = dose 500 μg/mL, +S9 mix, short treatment
[9] = dose 500 μg/mL, -S9 mix, 24 h treatment
[10] = dose 1000 μg/mL, +S9 mix, short treatment
[11] = dose 1000 μg/mL, -S9 mix, 24 h treatment
[12] = dose 2000 μg/mL, +S9 mix, short treatment
[13] = dose 2000 μg/mL, -S9 mix, 24 h treatment

Question: Which results are given for `Cc1c(N)cccc1N` [2,6-DAT]?
Answer: %SG [1, 2]: 77.8%; Mut. freq. (×10-6) N-MF [1, 2]: 2.2 ×10-6; Mut. freq. (×10-6) S-MF [1, 2]: 7.9 ×10-6; Mut. freq. (×10-6) T-MF [1, 2]: 10.1 ×10-6; %SG [1, 3]: 86.8%; Mut. freq. (×10-6) N-MF [1, 3]: 0.9 ×10-6; Mut. freq. (×10-6) S-MF [1, 3]: 5.8 ×10-6; Mut. freq. (×10-6) T-MF [1, 3]: 6.7 ×10-6; %SG [1, 4]: 83.3%; Mut. freq. (×10-6) N-MF [1, 4]: 2.1 ×10-6; Mut. freq. (×10-6) S-MF [1, 4]: 10.3 ×10-6; Mut. freq. (×10-6) T-MF [1, 4]: 12.3 ×10-6; %SG [1, 5]: 78.9%; Mut. freq. (×10-6) N-MF [1, 5]: 1.9 ×10-6; Mut. freq. (×10-6) S-MF [1, 5]: 7.3 ×10-6; Mut. freq. (×10-6) T-MF [1, 5]: 9.2 ×10-6; %SG [1, 6]: 74.2%; Mut. freq. N-MF [1, 6]: 2.7 ×10-6; Mut. freq. S-MF [1, 6]: 7.7 ×10-6; Mut. freq. T-MF [1, 6]: 10.3 ×10-6; %SG [1, 7]: 76.3%; Mut. freq. N-MF [1, 7]: 3.4 ×10-6; Mut. freq. S-MF [1, 7]: 10.8 ×10-6; Mut. freq. T-MF [1, 7]: 14.2 ×10-6; %SG [1, 8]: 83.1%; Mut. freq. N-MF [1, 8]: 1.5 ×10-6; Mut. freq. S-MF [1, 8]: 7.6 ×10-6; Mut. freq. T-MF [1, 8]: 9.1 ×10-6; %SG [1, 9]: 79.9%; Mut. freq. N-MF [1, 9]: 3.0 ×10-6; Mut. freq. S-MF [1, 9]: 11.9 ×10-6; Mut. freq. T-MF [1, 9]: 14.9 ×10-6; %SG [1, 10]: 79.2%; Mut. freq. N-MF [1, 10]: 1.8 ×10-6; Mut. freq. S-MF [1, 10]: 7.0 ×10-6; Mut. freq. T-MF [1, 10]: 8.9 ×10-6; %SG [1, 11]: 87.5%; Mut. freq. N-MF [1, 11]: 3.4 ×10-6; Mut. freq. S-MF [1, 11]: 24.1 ×10-6; Mut. freq. T-MF [1, 11]: 27.5 ×10-6; %SG [1, 12]: 80.8%; Mut. freq. N-MF [1, 12]: 3.4 ×10-6; Mut. freq. S-MF [1, 12]: 14.5 ×10-6; Mut. freq. T-MF [1, 12]: 17.9 ×10-6; %SG [1, 13]: 84.3%; Mut. freq. N-MF [1, 13]: 3.4 ×10-6; Mut. freq. S-MF [1, 13]: 18.1 ×10-6; Mut. freq. T-MF [1, 13]: 21.4 ×10-6; Adjusted CE0(%) (TK6 cells; [2]): 52.1%; CE0 (%), cell viability on Day 0 (TK6 cells; [2]): 53.2%; CE3 (%), cell viability on Day 3 (TK6 cells; [2]): 116.0%; RS0 (%) (TK6 cells; [2]): 75.5%; RSG (TK6 cells; [2]): 0.717; CE3 (TK6 cells; [2]): 1.160; Adjusted CE0(%) (TK6 cells; [3]): 49.9%; CE0 (%), cell viability on Day 0 (TK6 cells; [3]): 48.8%; CE3 (%), cell viability on Day 3 (TK6 cells; [3]): 104.6%; RS0 (%) (TK6 cells; [3]): 72.4%; RSG (TK6 cells; [3]): 0.788; CE3 (TK6 cells; [3]): 1.046; Adjusted CE0(%) (TK6 cells; [4]): 40.8%; CE0 (%), cell viability on Day 0 (TK6 cells; [4]): 40.8%; CE3 (%), cell viability on Day 3 (TK6 cells; [4]): 92.1%; RS0 (%) (TK6 cells; [4]): 59.2%; RSG (TK6 cells; [4]): 0.679; CE3 (TK6 cells; [4]): 0.921; Adjusted CE0(%) (TK6 cells; [5]): 26.2%; CE0 (%), cell viability on Day 0 (TK6 cells; [5]): 28.3%; CE3 (%), cell viability on Day 3 (TK6 cells; [5]): 112.0%; RS0 (%) (TK6 cells; [5]): 38.0%; RSG (TK6 cells; [5]): 0.616; CE3 (TK6 cells; [5]): 1.120; Adjusted CE0 (TK6 cells; [6]): 75.0%; CE0 (cell viability on Day 0) (TK6 cells; [6]): 72.7%; CE3 (cell viability on Day 3) (TK6 cells; [6]): 81.6%; RS0 (TK6 cells; [6]): 80.9%; RSG (TK6 cells; [6]): 0.721; CE3 (TK6 cells; [6]): 0.816; Adjusted CE0 (TK6 cells; [7]): 51.3%; CE3 (cell viability on Day 3) (TK6 cells; [7]): 95.0%; RS0 (TK6 cells; [7]): 57.2%; RSG (TK6 cells; [7]): 0.982; CE3 (TK6 cells; [7]): 0.950; Adjusted CE0 (TK6 cells; [8]): 70.6%; CE0 (cell viability on Day 0) (TK6 cells; [8]): 68.7%; CE3 (cell viability on Day 3) (TK6 cells; [8]): 86.6%; RS0 (TK6 cells; [8]): 76.2%; RSG (TK6 cells; [8]): 0.855; CE3 (TK6 cells; [8]): 0.866; Adjusted CE0 (TK6 cells; [9]): 25.3%; CE0 (cell viability on Day 0) (TK6 cells; [9]): 36.0%; RS0 (TK6 cells; [9]): 28.1%; RSG (TK6 cells; [9]): 0.472; CE3 (TK6 cells; [9]): 1.160; Adjusted CE0 (TK6 cells; [10]): 45.8%; CE0 (cell viability on Day 0) (TK6 cells; [10]): 43.3%; CE3 (cell viability on Day 3) (TK6 cells; [10]): 95.0%; RS0 (TK6 cells; [10]): 49.5%; RSG (TK6 cells; [10]): 0.544; CE3 (TK6 cells; [10]): 0.950; Adjusted CE0 (TK6 cells; [11]): 25.1%; CE3 (cell viability on Day 3) (TK6 cells; [11]): 101.2%; RS0 (TK6 cells; [11]): 28.0%; RSG (TK6 cells; [11]): 0.453; CE3 (TK6 cells; [11]): 1.012; Adjusted CE0 (TK6 cells; [12]): 31.8%; CE0 (cell viability on Day 0) (TK6 cells; [12]): 31.5%; CE3 (cell viability on Day 3) (TK6 cells; [12]): 84.1%; RS0 (TK6 cells; [12]): 34.3%; RSG (TK6 cells; [12]): 0.246; CE3 (TK6 cells; [12]): 0.841; Adjusted CE0 (TK6 cells; [13]): 20.5%; CE0 (cell viability on Day 0) (TK6 cells; [13]): 25.3%; CE3 (cell viability on Day 3) (TK6 cells; [13]): 108.2%; RS0 (TK6 cells; [13]): 22.8%; RSG (TK6 cells; [13]): 0.237; CE3 (TK6 cells; [13]): 1.082
